According to patent US20100098632A1, “HYDROXYAPATITE PARTICLES” (priority 2006, published 2010):

Assays:
[1] = In vivo biodistribution of Sm-HAP by gamma camera / microSPECT-CT imaging; conditions: mice, intravenous, 200 μCi for Sm-HAP
Experimental: FIG. 1 contains photographs of the distribution of Sm-HAP uptake in mice. […] The mouse was injected intravenously with Sm-153 HA nanoparticles synthesized at 50° C. Imaging was performed 2 hours post injection.
FIG. 2 contains a photograph of the distribution of Sm-153 EDTMP determined via non-invasive imaging using a small animal gamma camera (X-SPECT).
To determine the in vivo biodistribution of Sm-HAP, 200 μCi of Sm-HAP were administered intravenously to mice in 150 to 200 μL. The mice were imaged non-invasively using a microSPECT/CT machine.

Hep3B/Fluc = experiment: Mouse liver cancer model, bioluminescent tumor imaging; format: in vivo, Nude mice; conditions: intrahepatic Hep3B/Fluc, treatment day seven, intravenous
Experimental: Experiments were performed to evaluate Sm-153-hydroxyapatite particles (Sm-HAP) alone or in combination with PS-341, a radiosensitizer drug, in a mouse liver cancer model. Nude mice were injected intrahepatically with Hep3B/Fluc, a human hepatocellular carcinoma cell line expressing Firefly luciferase. Tumor growth was determined using a Xenogen Bioluminescent IVIS 200 Imaging System. On day seven after tumor implantation, mice were injected intravenously via the tail vein with 200 μg HAP, 0.5 mCi free Sm-153-EDTMP, 0.5 mCi Sm-HAP alone, or 0.5 mCi Sm-HAP in combination with two intraperitoneal doses of 0.5 mg/kg PS-341, the first administered one day prior to Sm-HAP administration and the second administered one day after Sm-HAP administration. […] In contrast, tumors in mice treated with the combination therapy (Sm-HAP and two doses of PS-341) regressed, as evidenced by a decrease in the signal (FIG. 7).

[2] = Labeling of preformed hydroxyapatite particles by incubation with Sm-153-EDTMP; format: physicochemical; conditions: 1 mg particles with 200 μCi for up to 2 hours at room temperature
Experimental: The unlabeled, hydroxyapatite particles were incubated with Sm-153-EDTMP. Briefly, 1 mg of hydroxyapatite particles was incubated with 200 μCi of Sm-153-EDTMP for up to 2 hours at room temperature (25° C.). The resulting hydroxyapatite particles were spun down and resuspended in 10 mM Tris buffer pH 7.2. The amount of Sm-153 radioactivity in the hydroxyapatite particles was determined and found to be negligible.

[3] = Clodronate loading on hydroxyapatite particles; format: physicochemical; conditions: for binding (loading) efficiency of clodronate to HA: 20 mg clodronate per 1 mg particles, disodium salt
Experimental: Clodronate (dichloromethylenediphosphonic acid disodium salt; Sigma, St. Louis, Mo.) was dissolved in distilled water (200 mg/mL) and 20 mg was added to 1 mg of hydroxyapatite particles. The mixture was incubated for 30 minutes. After hydroxyapatite particle binding, free clodronate in the supernatant was complexed with copper (II) ions (Cu^2) in nitric acid solution and the concentration was assayed by ultraviolet spectrophotometry as described elsewhere (Ostovic et al., Pharm Res., 10:470-472 (1993)). The amount of clodronate bound to hydroxyapatite particles was calculated by subtracting free clodronate from input clodronate.
The feasibility of utilizing the HA-biphosphonate interaction for drug loading onto the particles also was tested. Twenty milligrams of clodronate, a biphosphonate, was mixed with 1 mg of hydroxyapatite particles (40 nm in size) in 10 mM Tris-Cl buffer (pH 7.2), and the mixture was incubated with continuous shaking at room temperature for 30 minutes. Clodronate could be loaded onto hydroxyapatite particles at 10% efficiency (2 mg clodronate/mg HAP; n=3). […] The clodronate that was loaded on hydroxyapatite particles remained biologically active.

SMILES	in vivo biodistribution (uptake sites by imaging) [1]	tumor course by bioluminescent signal (Hep3B/Fluc)	amount of Sm-153 radioactivity in the hydroxyapatite particles [2]	final concentration of clodronate on HA ([3]; 40 nm HA)	binding (loading) efficiency of clodronate to HA ([3]; 40 nm HA)	binding (loading) efficiency of clodronate to HA ([3]; 40 nm HA, listed as clondronate)	clodronate loaded per mg particles ([3]; 40 nm, 10 mM Tris-Cl pH 7.2, 30 minutes, n=3)
O=P([O-])(O)CN(CCN(CP(=O)([O-])O)CP(=O)(O)O)CP(=O)([O-])O.[153Sm+3] [Sm-153-EDTMP]	binds to the skeleton of the mouse	progressed	negligible				
O=P([O-])([O-])C(Cl)(Cl)P(=O)(O)O.[Na+].[Na+] [clodronate, dichloromethylenediphosphonic acid disodium salt]				2 mg clodronate/mg HA	10%	about 10%	2 mg clodronate/mg HAP
